Laboratory results: ChEMBL document CHEMBL1138211, “New benzopyran-based openers of the mitochondrial ATP-sensitive potassium channel with potent anti-ischemic properties” (J Med Chem, 2006)
Active and inactive are the calls of the source. The rule behind the calls is not given here.

Tests used:
Rattus norvegicus [1] = assay: Ischemia-injured area relative to total area in Langendorff perfused Wistar rat heart subjected to ischemia-reperfusion cycles at 40 mg/kg, ip; format: functional; conditions: route intraperitoneal
Aorta [2] = assay: Vasorelaxation activity on KCl-induced contractile tone in Wistar rat thoracic aortic ring; format: functional, tissue-based
Aorta [3] = assay: Vasorelaxation activity on KCl-induced contractile tone in Wistar rat thoracic aortic ring at 100 uM; format: functional
Rattus norvegicus [4] = assay: Activity in Langendorff perfused Wistar rat heart subjected to ischemia-reperfusion cycles at 40 mg/kg, ip after 30 mins; format: functional; conditions: route intraperitoneal
Rattus norvegicus [5] = assay: Activity in Langendorff perfused Wistar rat heart subjected to ischemia-reperfusion cycles at 40 mg/kg, ip after 120 mins; format: functional; conditions: route intraperitoneal
Rattus norvegicus [6] = assay: LDH release in Langendorff perfused Wistar rat heart subjected to ischemia-reperfusion cycles at 40 mg/kg, ip after 120 mins; format: functional; conditions: route intraperitoneal
Rattus norvegicus [7] = assay: LDH release in Langendorff perfused Wistar rat heart subjected to ischemia-reperfusion cycles at 40 mg/kg, ip after 120 mins in presence of 5-hydroxydecanoic acid; format: functional; conditions: route intraperitoneal
Rattus norvegicus [8] = assay: Activity in Langendorff perfused Wistar rat heart subjected to ischemia-reperfusion cycles at 40 mg/kg, ip after 30 mins in presence of 5-hydroxydecanoic acid; format: functional; conditions: route intraperitoneal
Rattus norvegicus [9] = assay: Activity in Langendorff perfused Wistar rat heart subjected to ischemia-reperfusion cycles at 40 mg/kg, ip after 120 mins in presence of 5-hydroxydecanoic acid; format: functional; conditions: route intraperitoneal
Rattus norvegicus [10] = assay: Ischemia-injured area relative to total area in Langendorff perfused Wistar rat heart subjected to ischemia-reperfusion cycles at 40 mg/kg, ip in presence of 5-hydroxydecanoic acid; format: functional; conditions: route intraperitoneal
Rattus norvegicus [11] = assay: LDH release in Langendorff perfused Wistar rat heart subjected to ischemia-reperfusion cycles at 1 mg/kg, ip after 120 mins; format: functional; conditions: route intraperitoneal
Rattus norvegicus [12] = assay: LDH release in Langendorff perfused Wistar rat heart subjected to ischemia-reperfusion cycles at 1 mg/kg, ip after 120 mins in presence of 5-hydroxydecanoic acid; format: functional; conditions: route intraperitoneal
Rattus norvegicus [13] = assay: Ischemia-injured area relative to total area in Langendorff perfused Wistar rat heart subjected to ischemia-reperfusion cycles at 1 mg/kg, ip; format: functional; conditions: route intraperitoneal
Rattus norvegicus [14] = assay: Ischemia-injured area relative to total area in Langendorff perfused Wistar rat heart subjected to ischemia-reperfusion cycles at 1 mg/kg, ip in presence of 5-hydroxydecanoic acid; format: functional; conditions: route intraperitoneal
Rattus norvegicus [15] = assay: Decrease in systolic blood pressure in Wistar rat at 1 mg/kg, ip after 60 mins; format: functional, organism-based; set-up: dose 1 mg/kg; conditions: Artery
Rattus norvegicus [16] = assay: Activity in Langendorff perfused Wistar rat heart subjected to ischemia-reperfusion cycles at 1 mg/kg, ip after 30 mins; format: functional; conditions: route intraperitoneal
Rattus norvegicus [17] = assay: Activity in Langendorff perfused Wistar rat heart subjected to ischemia-reperfusion cycles at 1 mg/kg, ip after 30 mins in presence of 5-hydroxydecanoic acid; format: functional; conditions: route intraperitoneal
Rattus norvegicus [18] = assay: Activity in Langendorff perfused Wistar rat heart subjected to ischemia-reperfusion cycles at 1 mg/kg, ip after 120 mins; format: functional; conditions: route intraperitoneal
Rattus norvegicus [19] = assay: Activity in Langendorff perfused Wistar rat heart subjected to ischemia-reperfusion cycles at 1 mg/kg, ip after 120 mins in presence of 5-hydroxydecanoic acid; format: functional; conditions: route intraperitoneal

Row | Compound | IC50 (Aorta [2]) [µM] | Activity (Rattus norvegicus [1]) [%] | Emax at 100 µM (Aorta [3]) [%] | Activity (Rattus norvegicus [4]) [%] | Activity (Rattus norvegicus [5]) [%] | LDH release (Rattus norvegicus [6]) [U/g] | Activity (Rattus norvegicus [7]) | Activity (Rattus norvegicus [8]) [%] | Activity (Rattus norvegicus [9]) [%] | Activity (Rattus norvegicus [10]) [%] | Activity (Rattus norvegicus [11]) [%] | Activity (Rattus norvegicus [12]) [%] | Activity (Rattus norvegicus [13]) [%] | Activity (Rattus norvegicus [14]) [%] | Activity (Rattus norvegicus [15]) | Activity (Rattus norvegicus [16]) [%] | Activity (Rattus norvegicus [17]) [%] | Activity (Rattus norvegicus [18]) [%] | Activity (Rattus norvegicus [19]) [%]
1 | CC(=O)Nc1ccc(CN2CC3(CC(C)(C)Oc4ccccc43)OCC2=O)cc1 (racemic) | 25.1 | 20 | 57 | 79 | 62 | 6 | 13.5 U/g | 16 | 27 | 49 |  |  |  |  |  |  |  |  | 
2 | CC(=O)Nc1ccc(CN2CCOC3(C2)CC(C)(C)Oc2ccc(Br)cc23)cc1 (racemic) | 2.4 | 61 | 99 | 15 | 26 | 11.3 |  |  |  |  |  |  |  |  |  |  |  |  | 
3 | CC1(C)CC2(CN(Cc3ccc(NS(C)(=O)=O)cc3)CCO2)c2cc(Br)ccc2O1 (racemic) |  | 14 | 98 | 89 | 77 | 6.9 | 13.4 U/g | 17 | 33 | 40 |  |  |  |  |  |  |  |  | 
4 | CC1(C)Oc2ccc(C#N)cc2C(N2CCCC2=O)C1O (racemic) [CROMAKALIM] | 0.0977 |  | 98 |  |  |  |  |  |  |  | 5.5 | 8.6 | 25 | 38 | Active | 99 | 11 | 84 | 18
5 | CC1=Nc2ccc(Cl)cc2S(=O)(=O)N1 [DIAZOXIDE] | 19.1 | 22 | 97 | 80 | 47 | 5.7 | 14.5% | 13 | 6 | 52 |  |  |  |  |  |  |  |  | 

Continued by falling IC50 (Aorta [2]), values first:

Row | IC50 (Aorta [2]) [µM] | Compound | Activity (Rattus norvegicus [1]) [%] | Emax at 100 µM (Aorta [3]) [%] | Activity (Rattus norvegicus [4]) [%] | Activity (Rattus norvegicus [5]) [%] | LDH release (Rattus norvegicus [6]) [U/g] | Activity (Rattus norvegicus [7]) | Activity (Rattus norvegicus [8]) [%] | Activity (Rattus norvegicus [9]) [%] | Activity (Rattus norvegicus [10]) [%] | Activity (Rattus norvegicus [11]) [%] | Activity (Rattus norvegicus [12]) [%] | Activity (Rattus norvegicus [13]) [%] | Activity (Rattus norvegicus [14]) [%] | Activity (Rattus norvegicus [15]) | Activity (Rattus norvegicus [16]) [%] | Activity (Rattus norvegicus [17]) [%] | Activity (Rattus norvegicus [18]) [%] | Activity (Rattus norvegicus [19]) [%]
6 | 15.1 | CC(=O)Nc1ccc(CN2CC3(CC(C)(C)Oc4ccc(Br)cc43)OCC2=O)cc1 (racemic) | 58 | 70 | 2 | 3 | 12.4 |  |  |  |  |  |  |  |  |  |  |  |  | 
7 | 13.2 | CC(=O)Nc1ccc(CN2CCOC3(C2)CC(C)(C)Oc2ccccc23)cc1 (racemic) | 50 | 77 | 12 | 17 | 16 |  |  |  |  |  |  |  |  |  |  |  |  | 
8 | 7.24 | CC1(C)CC2(CN(Cc3ccc(NS(C)(=O)=O)cc3)C(=O)CO2)c2cc(Br)ccc2O1 (racemic) | 13 | 87 | 75 | 57 | 3 | 11.7 U/g | 52 | 39 | 47 |  |  |  |  |  |  |  |  | 
